Data published in PubChem BioAssay (NCI).
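Values below derive from 48-hour exposures of cells grown in 96-well plates, with endpoints linearly interpolated between the two concentrations bracketing the appropriate inhibition level. At the TGI there is no net growth.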

How the values were obtained:
Experiment in all cases: NCI tumour cell line growth inhibition, 48 h
[1] = tested on: DLD-1 colon
[2] = tested on: DMS 114 small cell lung
[3] = tested on: DMS 273 small cell lung
[4] = tested on: M19-MEL melanoma
[5] = tested on: SNB-78 CNS
[6] = tested on: RXF-631 renal

| Structure (SMILES) | TGI [1] [µM] | TGI [2] [µM] | TGI [3] [µM] | TGI [4] [µM] | TGI [5] [µM] | TGI [6] [µM] |
| --- | --- | --- | --- | --- | --- | --- |
| O=C(O)c1ccc(Nc2nc3nn(Cc4ccccc4)cc3c(=O)s2)cc1 | > 100 | > 100 | > 100 | > 100 | > 100 | – |
| CCCCCCCCCC(=O)NC(Cc1ccc(O)cc1)C(=O)NCCCNCCCCNCCCNC(=O)[C@@H](N)CCCN=C(N)N (some centres not stated) | – | > 100 | 42.9 | > 100 | – | – |
| Cc1ccc(C2C(Cl)C(=O)N2NC(=O)c2ccc(N)cc2)cc1 (configuration not stated) | 40.2 | 23.3 | 17.4 | 38.9 | 46.2 | – |
| CC(=O)NC1=C(N)C(=O)c2ccccc2C1=O | > 100 | 28.1 | > 100 | 41 | > 100 | > 100 |
| OC12CCC3(O)c4ccccc4C3C1c1ccccc12 (configuration not stated) | – | – | > 100 | > 100 | > 100 | – |
| OC12c3ccccc3C1CCCCCC21OCCCO1 (configuration not stated) | > 100 | > 100 | > 100 | > 100 | > 100 | – |
| O=C(c1ccco1)N(C(=S)N1CCN(c2ccccn2)CC1)c1ccccc1 | > 100 | > 100 | > 100 | > 100 | > 100 | – |
| C=CCn1c(=N)/c(=C(\N)O)s/c1=C1/SC(=S)N(c2ccc(C)cc2)C1=O | – | – | – | > 100 | – | – |
| CCn1c(CSc2nc(-c3ccccc3)c(-c3ccccc3)[nH]2)n[nH]c1=S | > 100 | > 100 | > 100 | > 100 | > 100 | – |
| CC[n+]1c(/C=C/c2ccc(N(CCCl)CCCl)cc2)ccc2cc(I)ccc21 | 6.14 | > 100 | – | – | 36 | – |
| COc1ccc(/C(Cl)=C(\C=O)c2ccc(Cl)cc2)cc1OC | > 100 | 59.5 | > 100 | 48.3 | > 100 | > 100 |
| O/N=C\C(=Nc1ccc(Cc2ccc(N=C(/C=N\O)NO)cc2)cc1)NO | > 100 | > 100 | > 100 | > 100 | > 100 | – |
